Laboratory results as given in US20260001871A1, “TRIAZOLE DERIVATIVES AS MODULATORS OF MAS-RELATED G-PROTEIN RECEPTOR D” (ESCIENT PHARMACEUTICALS, INC., priority 2022, published 2026).

Biological target: human MRGPRD (Homo sapiens, UniProt Q8TDS7)
Assay: MRGPRD antagonist activity, IP-One HTRF assay in CHO cells stably expressing human MRGPRD (versus 100 μM β-Alanine agonist)
Format: cell-based
Outline: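 CHO cells stably expressing human MRGPRD, plated overnight at 37 °C, were treated with antagonist plus agonist in Tris-HCl/NaCl/LiCl buffer pH 8, incubated 1 h at 37 °C then 1 h at room temperature. IP-1 accumulation read by HTRF; IC50 and percent antagonism of maximum efficacy averaged, SEM reported.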

human MRGPRD, sequence (Q8TDS7 whole entry): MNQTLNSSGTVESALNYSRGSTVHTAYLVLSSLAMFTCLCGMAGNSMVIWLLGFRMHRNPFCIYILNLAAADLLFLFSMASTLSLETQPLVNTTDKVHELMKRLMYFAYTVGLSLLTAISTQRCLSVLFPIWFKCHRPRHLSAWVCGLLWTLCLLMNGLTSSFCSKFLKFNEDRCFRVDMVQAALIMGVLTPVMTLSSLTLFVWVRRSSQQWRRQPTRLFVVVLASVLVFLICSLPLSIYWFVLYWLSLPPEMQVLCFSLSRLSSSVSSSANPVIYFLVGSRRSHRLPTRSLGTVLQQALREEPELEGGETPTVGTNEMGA

IC50 | SMILES
100 to 500 nM | Cc1nn(C)c(C)c1-c1ccc(-n2nnc(C(=O)Nc3ccncc3)c2C2CC2)cn1 [Compound 7-232]
100 to 500 nM | Cc1nn(C)c(C)c1-c1ccc(-n2nnc(C(=O)Nc3ccncc3)c2C2CC2)cc1F [Compound 7-234]
100 to 500 nM | Cc1cc(NC(=O)c2nnn(-c3cccc(-c4ccn(C5CCCC5)n4)c3)c2C2CC2)ccn1 [Compound 7-236]
100 to 500 nM | CC(=O)c1ccc(-c2ccc(-n3nnc(C(=O)Nc4ccncc4)c3C3CC3)cc2C)cc1 [Compound 7-238]
100 to 500 nM | Cc1nn(C)c(C)c1-c1ccc(-n2nnc(C(=O)Nc3ccncc3)c2C2CC2)c(OC(F)(F)F)c1 [Compound 7-239]
500 to 1000 nM | O=C(Nc1ccncc1)c1nnn(-c2cccc(-c3cnn(C4CCC4)c3)c2)c1C1CC1 [Compound 7-243]
500 to 1000 nM | COc1ccccc1-c1ccc(-n2nnc(C(=O)Nc3ccncc3)c2C2CC2)c(C)c1 [Compound 7-244]
500 to 1000 nM | O=C(Nc1ccncc1)c1nnn(-c2cccc(-c3cnn(CC(F)(F)F)c3)c2)c1C1CC1 [Compound 7-248]
500 to 1000 nM | CC(=O)c1ccc(-c2cccc(-n3nnc(C(=O)Nc4ccncc4)c3C3CC3)c2)cc1C [Compound 7-249]
500 to 1000 nM | Cc1nn(C)c(C)c1-c1ccc(-n2nnc(C(=O)Nc3ccncc3)c2C2CC2)cc1C#N [Compound 7-250]
500 to 1000 nM | Cc1nn(-c2ccccc2)c(C)c1-c1cccc(-n2nnc(C(=O)Nc3ccncc3)c2C2CC2)c1 [Compound 7-255]
500 to 1000 nM | O=C(Nc1ccncc1)c1nnn(-c2cccc(-c3cnn(-c4ccccc4)c3)c2)c1C1CC1 [Compound 7-256]
500 to 1000 nM | Cc1cc(-c2ccccc2)ccc1-n1nnc(C(=O)Nc2ccncc2)c1C1CC1 [Compound 7-257]
500 to 1000 nM | Cc1ccc(-n2nnc(C(=O)Nc3ccncc3)c2C2CC2)cc1-c1cnn(C(C)C)c1 [Compound 7-260]
500 to 1000 nM | CCn1ccc(-c2cccc(-n3nnc(C(=O)Nc4ccnc(C)c4)c3C3CC3)c2)n1 [Compound 7-262]
500 to 1000 nM | CC(=O)c1ccc(-c2cccc(-n3nnc(C(=O)Nc4ccncc4)c3C3CC3)c2)s1 [Compound 7-265]
500 to 1000 nM | COc1cc(-n2nnc(C(=O)Nc3ccncc3)c2C2CC2)ccc1-c1c(C)nn(C)c1C [Compound 7-275]
500 to 1000 nM | O=C(Nc1ccncc1)c1nnn(-c2cccc(-c3ccc(O)cc3)c2)c1C1CC1 [Compound 7-277]
500 to 1000 nM | Cc1ccc(CNC(=O)c2nnn(-c3cccc(-c4ccn(C5CCC5)n4)c3)c2C2CC2)cn1 [Compound 7-278]
500 to 1000 nM | Cc1nn(-c2ccccc2)cc1-c1cccc(-n2nnc(C(=O)Nc3ccncc3)c2C2CC2)c1 [Compound 7-281]
500 to 1000 nM | Cc1cc(NC(=O)c2nnn(-c3cccc(-c4ccn(-c5ccccc5)n4)c3)c2C2CC2)ccn1 [Compound 7-282]
1000 to 3000 nM | COc1ccc(-c2cccc(-n3nnc(C(=O)Nc4ccncc4)c3C3CC3)c2)c(C)c1 [Compound 7-287]
1000 to 3000 nM | CC(C)(C)n1cc(-c2cccc(-n3nnc(C(=O)Nc4ccncc4)c3C3CC3)c2)cn1 [Compound 7-288]
1000 to 3000 nM | CC(=O)c1ccc(-c2cccc(-n3nnc(C(=O)NCc4ccc(C)nc4)c3C3CC3)c2)c(F)c1 [Compound 7-297]
1000 to 3000 nM | O=C(Nc1ccncc1)c1nnn(-c2cccc(-c3ccccc3F)c2)c1C1CC1 [Compound 7-298]
1000 to 3000 nM | COCn1cc(-c2cccc(-n3nnc(C(=O)Nc4ccncc4)c3C3CC3)c2)cn1 [Compound 7-301]
1000 to 3000 nM | COc1ccc(-c2cccc(-n3nnc(C(=O)Nc4ccncc4)c3C3CC3)c2)cc1F [Compound 7-303]

Continued, compound first:

SMILES | IC50
CC(=O)c1ccc(-c2cccc(-n3nnc(C(=O)Nc4ccncc4)c3C3CC3)c2)c(F)c1 [Compound 7-229] | 100 to 500 nM
Cc1cc(-c2ccc(C#N)cc2)ccc1-n1nnc(C(=O)Nc2ccncc2)c1C1CC1 [Compound 7-230] | 100 to 500 nM
CC(=O)c1ccc(-c2ccc(-n3nnc(C(=O)Nc4ccncc4)c3C3CC3)c(C)c2)cc1 [Compound 7-231] | 100 to 500 nM
Cc1cc(NC(=O)c2nnn(-c3cccc(-c4ccn(C5CC5)n4)c3)c2C2CC2)ccn1 [Compound 7-233] | 100 to 500 nM
Cc1cc(NC(=O)c2nnn(-c3ccc(-c4ccc(C#N)cc4)c(F)c3)c2C2CC2)ccn1 [Compound 7-235] | 100 to 500 nM
CC(=O)c1cccc(-c2cccc(-n3nnc(C(=O)Nc4ccncc4)c3C3CC3)c2)c1 [Compound 7-237] | 100 to 500 nM
Cc1c(-c2cccc(-n3nnc(C(=O)Nc4ccncc4)c3C3CC3)c2)cnn1-c1ccccc1 [Compound 7-240] | 100 to 500 nM
O=C(Nc1ccncc1)c1nnn(-c2cccc(-c3cnn(CC4CC4)c3)c2)c1C1CC1 [Compound 7-241] | 500 to 1000 nM
Cc1cc(NC(=O)c2nnn(-c3ccc(-c4ccc(C#N)cc4)nc3)c2C2CC2)ccn1 [Compound 7-242] | 500 to 1000 nM
CC(=O)c1cccc(-c2cc(-n3nnc(C(=O)Nc4ccncc4)c3C3CC3)ccc2F)c1 [Compound 7-245] | 500 to 1000 nM
Cc1cc(-n2nnc(C(=O)Nc3ccncc3)c2C2CC2)ccc1-c1cn(C)nc1C [Compound 7-246] | 500 to 1000 nM
COc1ccc(-c2cccc(-n3nnc(C(=O)Nc4ccncc4)c3C3CC3)c2)c(F)c1 [Compound 7-247] | 500 to 1000 nM
CC(C)n1cc(-c2cccc(-n3nnc(C(=O)Nc4ccncc4)c3C3CC3)c2)cn1 [Compound 7-251] | 500 to 1000 nM
CC(=O)c1ccc(-c2cccc(-n3nnc(C(=O)Nc4ccncc4)c3C3CC3)c2)c(F)c1C [Compound 7-252] | 500 to 1000 nM
Cc1cc(NC(=O)c2nnn(-c3cccc(-c4ccn(C)n4)c3)c2C2CC2)ccn1 [Compound 7-253] | 500 to 1000 nM
COc1ccc(-c2cccc(-n3nnc(C(=O)Nc4ccncc4)c3C3CC3)c2)cc1C [Compound 7-258] | 500 to 1000 nM
CC(=O)c1cccc(-c2cc(-n3nnc(C(=O)Nc4ccncc4)c3C3CC3)ccc2C)c1 [Compound 7-259] | 500 to 1000 nM
COc1ccccc1-c1ccc(-n2nnc(C(=O)Nc3ccncc3)c2C2CC2)cc1C [Compound 7-261] | 500 to 1000 nM
CC(=O)c1ccc(-c2cccc(-n3nnc(C(=O)Nc4ccncc4)c3C3CC3)c2)c(C)c1 [Compound 7-263] | 500 to 1000 nM
N#Cc1ccc(-c2cccc(-n3nnc(C(=O)Nc4ccncc4)c3C3CC3)c2)cc1 [Compound 7-264] | 500 to 1000 nM
O=C(Nc1ccncc1)c1nnn(-c2cccc(-c3cnn(C4CCCC4)c3)c2)c1C1CC1 [Compound 7-266] | 500 to 1000 nM
Cc1nn(C)c(C)c1-c1ccc(-n2nnc(C(=O)Nc3ccncc3)c2C2CC2)c(C#N)c1 [Compound 7-267] | 500 to 1000 nM
COc1ccc(-c2cccc(-n3nnc(C(=O)Nc4ccncc4)c3C3CC3)c2)cc1 [Compound 7-268] | 500 to 1000 nM
N#CCc1cccc(-c2cccc(-n3nnc(C(=O)Nc4ccncc4)c3C3CC3)c2)c1 [Compound 7-269] | 500 to 1000 nM

SMILES | IC50
O=C(Nc1ccncc1)c1nnn(-c2cccc(-c3cnn(Cc4ccccc4)c3)c2)c1C1CC1 [Compound 7-270] | 500 to 1000 nM
Cc1cc(-n2nnc(C(=O)Nc3ccncc3)c2C2CC2)ccc1-c1c(C)nn(C)c1C [Compound 7-271] | 500 to 1000 nM
COc1cc(-c2ccccc2)ccc1-n1nnc(C(=O)Nc2ccnc(C)c2)c1C1CC1 [Compound 7-272] | 500 to 1000 nM
N#CCc1ccc(-c2cccc(-n3nnc(C(=O)Nc4ccncc4)c3C3CC3)c2)cc1 [Compound 7-273] | 500 to 1000 nM
CC(=O)c1ccc(-c2cccc(-n3nnc(C(=O)Nc4ccncc4)c3C3CC3)c2)cc1 [Compound 7-274] | 500 to 1000 nM
O=C(Nc1ccncc1)c1nnn(-c2cccc(-c3ccccc3O)c2)c1C1CC1 [Compound 7-276] | 500 to 1000 nM
Cc1cc(NC(=O)c2nnn(-c3ccc(-c4ccccc4)cn3)c2C2CC2)ccn1 [Compound 7-279] | 500 to 1000 nM
CC(=O)c1ccc(-c2cccc(-n3nnc(C(=O)Nc4ccncc4)c3C3CC3)c2)cc1F [Compound 7-280] | 500 to 1000 nM
O=C(Nc1ccncc1)c1nnn(-c2cccc(-c3cnn4c3CCC4)c2)c1C1CC1 [Compound 7-283] | 500 to 1000 nM
CCc1ccc(-c2cccc(-n3nnc(C(=O)Nc4ccncc4)c3C3CC3)c2)cc1 [Compound 7-284] | 500 to 1000 nM
O=C(Nc1ccncc1)c1nnn(-c2cccc(-c3ccccc3C(F)(F)F)c2)c1C1CC1 [Compound 7-285] | 1000 to 3000 nM
COc1ccc(-c2cccc(-n3nnc(C(=O)Nc4ccncc4)c3C3CC3)c2)c(OC)c1 [Compound 7-286] | 1000 to 3000 nM
CC(C)n1cc(-c2cc(-n3nnc(C(=O)Nc4ccncc4)c3C3CC3)ccc2F)cn1 [Compound 7-289] | 1000 to 3000 nM
Cc1nn(C2CCC2)c(C)c1-c1cccc(-n2nnc(C(=O)Nc3ccncc3)c2C2CC2)c1 [Compound 7-290] | 1000 to 3000 nM
Cc1cc(NC(=O)c2nnn(-c3cccc(-c4c(C)nn(C)c4C)c3)c2C2CC2)ccn1 [Compound 7-291] | 1000 to 3000 nM
COc1cccc(-c2cccc(-n3nnc(C(=O)Nc4ccncc4)c3C3CC3)c2)c1 [Compound 7-292] | 1000 to 3000 nM
N#Cc1cccc(-c2cccc(-n3nnc(C(=O)Nc4ccncc4)c3C3CC3)c2)c1 [Compound 7-293] | 1000 to 3000 nM
O=C(Nc1ccncc1)c1nnn(-c2cccc(-c3cccc(C(F)(F)F)c3)c2)c1C1CC1 [Compound 7-294] | 1000 to 3000 nM
O=C(Nc1ccncc1)c1nnn(-c2cccc(-c3ccn[nH]3)c2)c1C1CC1 [Compound 7-295] | 1000 to 3000 nM
O=C(Nc1ccncc1)c1nnn(-c2cccc(-c3ccc[nH]3)c2)c1C1CC1 [Compound 7-296] | 1000 to 3000 nM
O=C(Nc1ccncc1)c1nnn(-c2cccc(-c3cccc(O)c3)c2)c1C1CC1 [Compound 7-299] | 1000 to 3000 nM
Cc1nn(C)c(C)c1-c1ccc(-n2nnc(C(=O)Nc3ccncc3)c2C2CC2)c(C(F)(F)F)c1 [Compound 7-300] | 1000 to 3000 nM
O=C(Nc1ccncc1)c1nnn(-c2cccc(-c3ccccc3Cl)c2)c1C1CC1 [Compound 7-302] | 1000 to 3000 nM
CCc1ccc(-n2nnc(C(=O)Nc3ccncc3)c2C2CC2)cc1-c1cnn(C(C)C)c1 [Compound 7-304] | 1000 to 3000 nM
